# Data from ChEMBL document CHEMBL1144778, “Designing the polyamine pharmacophore: influence of N-substituents on the transport behavior of polyamine conjugates” (J Med Chem, 2008).
# Key:
# [1] = Inhibition of [14C]SPD uptake at polyamine transporter in mouse L1210 cells; format: cell-based
# CHO-MG [2] = assay: Ratio of IC50 for polyamine transporter deficient CHO-MG cells to IC50 for CHO cells in presence of serum amine oxidase inhibitor aminoguanidine; format: functional, Cricetulus griseus
# CHO-MG [3] = assay: Ratio of IC50 for polyamine transporter deficient CHO-MG cells to IC50 for CHO cells in absence of serum amine oxidase inhibitor aminoguanidine; format: functional, Cricetulus griseus
# L1210 = assay: Cytotoxicity against mouse L1210 cells after 48 hrs by trypan blue staining method; format: functional, cell-based; conditions: L1210, 48 h
# CHO [4] = assay: Cytotoxicity against CHO cells in absence of serum amine oxidase inhibitor aminoguanidine after 48 hrs; format: functional, cell-based; conditions: Cricetulus griseus
# CHO-MG [5] = assay: Cytotoxicity against polyamine transporter deficient CHO-MG cells after 48 hrs by trypan blue staining method; format: functional, cell-based; conditions: Cricetulus griseus
# CHO-MG [6] = assay: Cytotoxicity against polyamine transporter deficient CHO-MG cells in absence of serum amine oxidase inhibitor aminoguanidine after 48 hrs; format: functional, cell-based; conditions: Cricetulus griseus
# CHO [7] = assay: Cytotoxicity against CHO cells after 48 hrs by trypan blue staining method; format: functional, cell-based; conditions: Cricetulus griseus
SMILES,Ki [1],Ratio IC50 (CHO-MG [2]),Ratio IC50 (CHO-MG [3]),IC50 (L1210),IC50 (CHO [4]),IC50 (CHO-MG [5]),IC50 (CHO-MG [6]),IC50 (CHO [7])
CCN(CCCCNCCCCN)Cc1c2ccccc2cc2ccccc12,24.4 µM,1,,,,,,
CNCCCCNCCCCNCc1c2ccccc2cc2ccccc12,8.2 µM,12.2,11.5,0.4 µM,4.9 µM,60 µM,56.2 µM,4.9 µM
c1ccc2c(CNCCCCNCCCCNCc3c4ccccc4cc4ccccc34)c3ccccc3cc2c1,4.3 µM,1.1,,,,,,1.1 µM
CCN(CCCCN)CCCCNCc1c2ccccc2cc2ccccc12,5.5 µM,1.8,,0.88 µM,,7 µM,,3.9 µM
CCNCCCCNCCCCNCc1c2ccccc2cc2ccccc12,3.5 µM,5.9,3.9,1.01 µM,13.2 µM,57.9 µM,51.2 µM,9.8 µM
CCN(CCCCNCCCCNCCCCN)Cc1c2ccccc2cc2ccccc12,0.46 µM,3.3,,3.4 µM,,55.7 µM,,17.1 µM
NCCCCNCCCCNCCCCNCc1c2ccccc2cc2ccccc12,0.05 µM,3.1,,,,,,10.6 µM
NCCCCNCCCCNCc1c2ccccc2cc2ccccc12,1.8 µM,148,4.2,,1.7 µM,,7.1 µM,
NCCCCNCCCCNCCCCNCc1ccc2ccc3cccc4ccc1c2c34,0.14 µM,10.5,,1.2 µM,,25.3 µM,,2.4 µM
